Experiment [1] concerns methylphenidate induced stereotypies. Briefly: Methylphenidate Antagonism. It counts as in vivo, mice. The note with it: Mus musculus, ip, read-out: MePh antg. ED50, i.p., mice, 2 hours before methylphenidate 60 mg/kg s.c. The method, then: The experiments were made as described by Pedersen and Christensen (1972) Acta Pharmacol. et Toxicol. 31, 488-496.--Briefly, test compounds or saline were injected i.p. 2 hours before methylphenidate, 60 mg/kg s.c. 3 pairs of mice were used for each dose level. After methylphenidate injection the mice were placed in observation cages for one hour. The cages were placed on corrugated paper, the corrugation facing upwards.

Experiment [2] relates to Quipazine-induced head shakes. Briefly: Quipazine-induced head shakes. The class given is in vivo. The note with it: Rattus norvegicus, sc, rats, 2 hours before quipazine 5 mg/kg s.c.; read-out: Quipazine antg. (Q) ED50. The protocol:
The rats were pretreated subcutaneously with test compound or saline 2 hours before injection of quipazine (5 mg/kg s.c.). The rats were then placed individually in perspex observation cages (12×25 cm), and in standard experiments the number of head shakes (involving the head and sometimes part of the body) were counted for 10 min., 30-40 min. after quipazine, where the effect was maximal. The number of head shakes in each dose group were expressed in percent of those induced in the control group, and ED50 values were calculated by log-probit analysis of results from at least 3 doses.
Each group consisted of 4-12 rats.

Experiment [3] deals with spontaneous hypertensive rats (SHR). The experiment in a line: Antihypertensive effect in spontaneous hypertensive rats (SHR). It counts as in vivo. The note with it: 5 mg/kg ip, max change within one hour; for change in vivo at 5 mg/kg: Rattus norvegicus, ip, 1 h.
The subject of a further experiment is 5-HT pressor responses. Briefly: Antagonism to 5-HT pressor responses in pithed rats. To be noted: pithed rats, 0.02 mg/kg, jugular vein; for change in vivo at 0.02 mg/kg: Rattus norvegicus, iv, read-out: Effects on pressor response of 5-HT, % eff. of 0.02 mg/kg. It counts as in vivo.
The subject of experiment [4] is phenylephrine pressor responses. Briefly: Antagonism to phenylephrine pressor responses in pithed rats. It counts as in vivo. The note with it: for change in vivo at […]: Rattus norvegicus, iv, read-out: Effects on pressor response of Phenylephrine, % eff. of […], pithed rats, […], jugular vein, read-out: Effects on pressor response of Phenylephrine, % eff. of 0.31 mg/kg.

Where [5] appears, read: diastolic pressure (DAP), read-out: Antihypertensive eff. SHR, max eff. in % of 5 mg/kg ip, DAP.
The mark [6] stands for this setting: systolic pressure (SAP), read-out: Antihypertensive eff. SHR, max eff. in % of 5 mg/kg ip, SAP.

SMILES strings stand for the structures. Like-named read-outs stand apart in the source and are kept apart here.

On to `O=C1CCCN1CCN1CCN([C@@H]2C[C@@H](c3ccc(F)cc3)c3ccc(Cl)cc32)CC1` (relative stereo) [compound 21], for which the ED50 in experiment [1] is 11 µmol/kg; in experiment [2] it was 0.079 µmol/kg. The change in vivo at 5 mg/kg in experiment [3] (setting [5]) was -14%; in experiment [3] (setting [6]), -11%. In addition, in the experiment on 5-HT pressor responses, the change in vivo at 0.02 mg/kg is -83%. Further, in experiment [4], the change in vivo at […] was found to be 3%.

As to `Fc1ccc([C@@H]2C[C@@H](N3CCN(CCN4CCCC4=S)CC3)c3cc(Cl)ccc32)cc1` (relative stereo) [compound 29, (±)Trans-1-[3-(4-fluorophenyl)-6-chlorindan-1-yl]-4-[2-(2-pyrrolidinthion-1-yl)ethyl]piperazine], the ED50 in experiment [2] was under 0.17 µmol/kg. Further, the change in vivo at 5 mg/kg in experiment [3] (setting [5]) is -4%; in experiment [3] (setting [6]), -5%. The change in vivo at 0.02 mg/kg in the experiment with 5-HT pressor responses was -88%. In addition, the change in vivo at […] in experiment [4] turned out to be 8%.

For `O=C1NCCN1CCN1CCN([C@@H]2C[C@@H](c3ccc(F)cc3)c3ccc(Cl)cc32)CC1` (single isomer, unassigned) [+20, Trans-1-[3-(4-fluorophenyl)-6-chloroindan-1-yl]-4-[2-(2-imidazolidinon-1-yl)ethyl]piperazine, L(+)tartrate], the ED50 in experiment [1] was 49 µmol/kg; in experiment [2], 0.028 µmol/kg. For the same compound, in experiment [3] (diastolic pressure (DAP)), the “Antihypertensive eff. SHR, max eff. in % of 5 mg/kg ip, DAP” value is reported as -45%. In experiment [3] (systolic pressure (SAP)), the “Antihypertensive eff. SHR, max eff. in % of 5 mg/kg ip, SAP” value is listed as -29%. In addition, in the experiment on 5-HT pressor responses, the “Effects on pressor response of 5-HT, % eff. of 0.02 mg/kg” value is listed as -92%. Also, the “Effects on pressor response of Phenylephrine, % eff. of […]” value in experiment [4] (pithed rats, […], jugular vein) is listed as -34%.

Regarding `O=C1OCCN1CCN1CCN([C@@H]2C[C@@H](c3ccc(F)cc3)c3ccc(Cl)cc32)CC1` (relative stereo) [compound 22], the results for the ED50 in experiment [1] and in experiment [2] were 2.8 µmol/kg and 0.12 µmol/kg, respectively. Further, the change in vivo at 5 mg/kg in experiment [3] (setting [5]) is -21%; in experiment [3] (setting [6]), -17%. For the same compound, in the experiment on 5-HT pressor responses, the change in vivo at 0.02 mg/kg was -77%. In addition, in experiment [4], the change in vivo at […] is -5%.

Consider `Fc1ccc([C@@H]2C[C@@H](N3CCN(CCN4CCNC4=S)CC3)c3cc(Cl)ccc32)cc1` (relative stereo) [compound 28], for which the ED50 in experiment [1] came to 4.5 µmol/kg; in experiment [2] it was 0.017 µmol/kg. Also, the change in vivo at 5 mg/kg in experiment [3] (setting [5]) was -10%; in experiment [3] (setting [6]), -6%. Besides, the change in vivo at 0.02 mg/kg in the experiment with 5-HT pressor responses was -93%. For the same compound, the change in vivo at […] in experiment [4] is -22%.

Values taken from patent US4684650A, “Antihypertensive fluorophenylindanyl imidazolidinoneethylpiperazines” (priority 1984, dated 1987).
